# Tests used:
# [1] = tested on: Harmaline induced tremor activity in male Sprague Dawley (SD) rats; assay: Harmaline-induced tremor activity measured with a piezoelectric plate; type: in vivo, rat; settings: harmaline 30 mg/kg i.p., 1 mg/kg p.o. alone
# Method: This study sought to evaluate the effects of the HCl salt of the compound of Formula (I) (the “study drug”) administered alone (1 mg/kg, p.o.) or in combination with propranolol (1 and 3 mg/kg, i.p. at 20 min prior) in Harmaline (10 or 30 mg/kg, i.p.) induced tremor activity measured with a piezoelectric plate in male Sprague Dawley (SD) rats.
# Rats were fed ad lib and kept at a 12:12 light-dark cycle throughout the study. There were N=15 in each group. Harmaline and propranolol were each formulated with saline using a volume of 5 ml/kg bodyweight. Vehicle for the study drug (1 mg/kg) was 0.5% methyl cellulose/0.1% Tween-80 in water.
# 1) Rats were allowed to acclimate in standard laboratory animal facility conditions for at least 5-7 days prior to use. 2) Rat was put in a Plexiglas chamber with a piezoelectric plate attached at the bottom to transduce tremor behavior into electronic signal. […] 3) One day prior to the first testing day, a naive rat was put in the testing chamber to confirm that the spontaneous activity baseline was within the range of 3000-10000 uv, as this sensitivity level generally allows all the tremor signal to be detected with the system. […] 11) Post-harmaline effect was measured for 20 min (10-30 min). […]
# [2] = Plasma and brain tissue concentrations in rats after harmaline testing; type: in vivo, rat; settings: collected immediately after harmaline testing
# Method: Plasma and brain tissue sample collection (at 90 min post dosing of study compound) was evaluated in […]. N=15 in each group. Plasma and brain tissue samples were collected immediately after harmaline testing. Plasma sample number: 5×15=75. Brain tissue sample number: 5×15=75.
compound,measurement,setting,value
CC(C)(C)NC(=O)CN1CCC(CNC(=O)c2cc(F)cc(Cl)c2)CC1.Cl [Study drug],harmaline-induced tremor (tremor power in the 8-13 Hz and 6-15 Hz bands),[1],significantly reduces
same,plasma and brain concentrations,[2],consistent with those measured in previous studies

# From patent publication US20250170114A1, “METHODS OF TREATMENT USING T-TYPE CALCIUM CHANNEL MODULATORS” (Praxis Precision Medicines, Inc., priority 2022, published 2025)
